Usually MIC stands for the least concentration at which growth counts as inhibited. A higher MIC goes with a less susceptible organism.

Data on 50 compounds can be found in ChEMBL document CHEMBL3751781, “Three-dimensional QSAR analysis and design of new 1,2,4-oxadiazole antibacterials” (2016).

Values after ≈ are worked out from the molar mass of the structure shown.

For the experiment, the system named is Staphylococcus aureus. The experiment can be described thus: Antibacterial against Staphylococcus aureus. The class given is functional. The conditions noted are these: for MIC: Staphylococcus aureus.

For `O=c1[nH]c(-c2ccc(Oc3ccccc3)cc2)no1`, the “-logMIC” value is 0.686 and 128 µg/mL (≈ 503 µM) was the least that counted as inhibitory (MIC).

As for `Nc1c[nH]nc1-c1nc(-c2ccc(Oc3ccc(C(F)(F)F)cc3)cc2)no1`, the “-logMIC” value stood at 4.573.

With `Oc1ccc(-c2nc(-c3ccc(Oc4ccccc4)cc3)no2)cc1`, the “-logMIC” value is listed as 5.8.

For `C#Cc1c[nH]nc1-c1nc(-c2ccc(Oc3ccc(C(F)(F)F)cc3)cc2)no1`, the “-logMIC” value worked out at 7.369 and the MIC turned out to be 0.25 µg/mL (≈ 0.631 µM).

For `N#Cc1c[nH]nc1-c1nc(-c2ccc(Oc3ccc(C(F)(F)F)cc3)cc2)no1`, the “-logMIC” value came out at 5.292.

For the compound `OCC#Cc1c[nH]nc1-c1nc(-c2ccc(Oc3ccc(C(F)(F)F)cc3)cc2)no1`, the “-logMIC” value was 4.669.

Take `Oc1c(F)cc(-c2nc(-c3ccc(Oc4ccc(C(F)(F)F)cc4)cc3)no2)cc1F`: the “-logMIC” value turned out to be 5.381.

Take `c1ccc(Oc2ccc(-c3noc(-c4ccc5[nH]ccc5c4)n3)cc2)cc1`: the “-logMIC” value turned out to be 5.174 and the MIC amounted to 4 µg/mL (≈ 11.3 µM).

Regarding `FC(F)(F)c1ccc(Oc2ccc(-c3noc(-c4ccc5[nH]ccc5c4)n3)cc2)cc1`, the “-logMIC” value amounted to 4.657.

Take `Fc1ccc(Oc2ccc(-c3noc(-c4ccc5[nH]ccc5c4)n3)cc2)cc1`: the “-logMIC” value came out at 5.224 and the minimum inhibitory concentration (MIC) was determined as 2 µg/mL (≈ 5.39 µM).

With `Fc1ccc(-c2nc(-c3ccc(Oc4ccccc4)cc3)no2)cc1`, the “-logMIC” value was 0.954 and it took 128 µg/mL (≈ 385 µM) to inhibit growth (MIC).

Take `Fc1ccc(Oc2ccc(-c3noc(-c4ccc(Br)cc4)n3)cc2)cc1`: the “-logMIC” value came to 1.167 and the MIC came to 128 µg/mL (≈ 311 µM).

Turning to `NS(=O)(=O)c1ccc(-c2nc(-c3ccc(Oc4ccc(C(F)(F)F)cc4)cc3)no2)cc1`, the “-logMIC” value stood at 1.282 and the lowest concentration to inhibit growth (MIC) was 128 µg/mL (≈ 277 µM).

On to `NS(=O)(=O)c1ccc(-c2nc(-c3ccc(Oc4ccc(F)cc4)cc3)no2)cc1`, for which the “-logMIC” value is 1.168 and the MIC is 128 µg/mL (≈ 311 µM).

Take `NC(=O)c1ccc(-c2nc(-c3ccc(Oc4ccc(F)cc4)cc3)no2)cc1`: the “-logMIC” value is on record as 1.158 and the lowest concentration to inhibit growth (MIC) was 128 µg/mL (≈ 341 µM).

For the compound `Oc1ccccc1-c1nc(-c2ccc(Oc3ccccc3)cc2)no1`, the “-logMIC” value was determined as 0.948 and the minimum inhibitory concentration (MIC) was 128 µg/mL (≈ 387 µM).

Take `COc1ccc(-c2nc(-c3ccc(Oc4ccccc4)cc3)no2)cc1[N+](=O)[O-]`: the “-logMIC” value came out at 1.113 and the minimum inhibitory concentration (MIC) was 128 µg/mL (≈ 329 µM).

`COc1ccc(-c2nc(-c3ccc(Oc4ccc(F)cc4)cc3)no2)cc1[N+](=O)[O-]`: the “-logMIC” value was 1.158 and 128 µg/mL (≈ 314 µM) was the least that counted as inhibitory (MIC).

Consider `COc1ccc(-c2nc(-c3ccc(Oc4ccc(F)cc4)cc3)no2)cc1OC`, for which the “-logMIC” value was determined as 1.12 and inhibition of growth (MIC) required 128 µg/mL (≈ 326 µM).

As for `Nc1c[nH]nc1-c1nc(-c2ccc(Oc3ccccc3)cc2)no1`, the “-logMIC” value is listed as 2.994.

For the compound `FC(F)(F)c1ccc(Oc2ccc(-c3noc(-c4n[nH]cc4NC4CCCC4)n3)cc2)cc1`, the “-logMIC” value amounted to 1.269 and the MIC was 128 µg/mL (≈ 281 µM).

As for `CCOP(=O)(OCC)c1c[nH]nc1-c1nc(-c2ccc(Oc3ccc(C(F)(F)F)cc3)cc2)no1`, the “-logMIC” value is listed as 1.379 and the MIC was 128 µg/mL (≈ 252 µM).

As for `c1ccc(Oc2ccc(-c3noc(-c4ccncc4)n3)cc2)cc1`, the “-logMIC” value is 0.902 and the MIC turned out to be 128 µg/mL (≈ 406 µM).

As for `Nc1cncc(-c2nc(-c3ccc(Oc4ccc(C(F)(F)F)cc4)cc3)no2)c1`, the “-logMIC” value was found to be 1.135 and the MIC turned out to be 128 µg/mL (≈ 321 µM).

As to `FC(F)(F)c1ccc(Oc2ccc(-c3noc(-c4c[nH]c5ncccc45)n3)cc2)cc1`, the “-logMIC” value was found to be 1.194 and the MIC was 128 µg/mL (≈ 303 µM).

For `Fc1ccc(Oc2ccc(-c3noc(-c4c[nH]c5ncccc45)n3)cc2)cc1`, the “-logMIC” value is given as 1.068 and the MIC was 128 µg/mL (≈ 344 µM).

On to `O=[N+]([O-])c1c[nH]c(-c2nc(-c3ccc(Oc4ccc(F)cc4)cc3)no2)c1`, for which the “-logMIC” value amounted to 1.052 and it took 128 µg/mL (≈ 349 µM) to inhibit growth (MIC).

On to `Nc1c[nH]c(-c2nc(-c3ccc(Oc4ccc(F)cc4)cc3)no2)c1`, for which the “-logMIC” value amounted to 0.966 and the lowest concentration to inhibit growth (MIC) was 128 µg/mL (≈ 381 µM).

In the case of `Fc1ccc(Oc2ccc(-c3noc(-c4cc[nH]c4)n3)cc2)cc1`, the “-logMIC” value is given as 0.92 and the MIC is 128 µg/mL (≈ 398 µM).

Regarding `Brc1ccc(-c2nc(-c3ccccc3)no2)cc1`, the “-logMIC” value came out at 0.856 and the lowest concentration to inhibit growth (MIC) was 128 µg/mL (≈ 425 µM).

In the case of `Oc1ccc(-c2nc(-c3ccc(Oc4ccccc4)c(F)c3)no2)cc1`, the “-logMIC” value was found to be 3.774 and inhibition of growth (MIC) required 8 µg/mL (≈ 23 µM).

As to `COc1ccc(-c2nc(-c3ccc(Br)cc3)no2)cc1`, the “-logMIC” value is on record as 0.951 and the MIC amounted to 128 µg/mL (≈ 387 µM).

Consider `O=[N+]([O-])c1ccccc1Oc1ccc(-c2noc(-c3ccc(O)cc3)n2)cc1`, for which the “-logMIC” value came to 4.542 and the MIC was 4 µg/mL (≈ 10.7 µM).

For `Cc1nc(-c2ccc(Oc3ccc(C(F)(F)F)cc3)cc2)no1`, the “-logMIC” value amounted to 0.917 and the MIC was found to be 128 µg/mL (≈ 400 µM).

As to `O=[N+]([O-])c1c[nH]nc1-c1nc(-c2ccc(Oc3ccc(F)c(F)c3)cc2)no1`, the “-logMIC” value is 5.261 and inhibition of growth (MIC) required 2 µg/mL (≈ 5.19 µM).

In the case of `Oc1ccc(Oc2ccc(-c3noc(-c4ccc(O)cc4)n3)cc2)cc1`, the “-logMIC” value came out at 2.382 and the MIC was found to be 32 µg/mL (≈ 92.4 µM).

As for `[N-]=[N+]=Nc1ccc(Oc2ccc(-c3noc(-c4ccc(O)cc4)n3)cc2)cc1`, the “-logMIC” value is reported as 5.224 and the minimal inhibitory concentration (MIC) amounted to 2 µg/mL (≈ 5.39 µM).

Regarding `O=C(O)c1cccc(Oc2ccc(-c3noc(-c4ccc(O)cc4)n3)cc2)c1`, the “-logMIC” value was 1.766 and the minimal inhibitory concentration (MIC) was determined as 64 µg/mL (≈ 171 µM).

For the compound `Oc1ccc(-c2nc(-c3ccc(Oc4cccnc4)cc3)no2)cc1`, the “-logMIC” value is recorded as 0.951 and the MIC turned out to be 128 µg/mL (≈ 386 µM).

With `[N-]=[N+]=Nc1cc(-c2noc(-c3ccc(O)cc3)n2)ccc1Oc1ccccc1`, the “-logMIC” value is reported as 5.224 and the minimum inhibitory concentration (MIC) stood at 2 µg/mL (≈ 5.39 µM).

Consider `O=[N+]([O-])c1ccc(-c2nc(-c3ccc(Oc4ccc(C(F)(F)F)cc4)cc3)no2)cc1F`, for which the “-logMIC” value is recorded as 1.247 and 128 µg/mL (≈ 287 µM) was the least that counted as inhibitory (MIC).

With `Oc1ccc(Oc2ccc(-c3noc(-c4ccc(F)cc4)n3)cc2)cc1`, the “-logMIC” value is 1.001 and the MIC came to 128 µg/mL (≈ 367 µM).

Regarding `O=[N+]([O-])c1cc(-c2noc(-c3ccc(O)cc3)n2)ccc1Oc1ccccc1`, the “-logMIC” value worked out at 3.848 and the MIC turned out to be 8 µg/mL (≈ 21.3 µM).

In the case of `O=P(O)(O)Oc1ccc(Oc2ccc(-c3noc(-c4ccc(F)cc4)n3)cc2)cc1`, the “-logMIC” value is recorded as 1.208 and inhibition of growth (MIC) required 128 µg/mL (≈ 299 µM).

Regarding `O=C1COc2cc(-c3nc(-c4ccc(Oc5ccccc5)cc4)no3)ccc2N1`, the “-logMIC” value is listed as 1.102 and the MIC was determined as 128 µg/mL (≈ 332 µM).

Regarding `Oc1ccc(-c2nc(-c3ccc(Oc4ccncc4)cc3)no2)cc1`, the “-logMIC” value was found to be 0.951 and the MIC came out at 128 µg/mL (≈ 386 µM).

Regarding `Clc1ccc(Oc2ccc(-c3noc(-c4n[nH]cc4Cl)n3)cc2)cc1Cl`, the “-logMIC” value turned out to be 6.01 and the minimal inhibitory concentration (MIC) turned out to be 1 µg/mL (≈ 2.45 µM).

As for `Oc1ccc(-c2nc(-c3ccc(Oc4ccccc4)c(Cl)c3)no2)cc1`, the “-logMIC” value worked out at 5.206 and inhibition of growth (MIC) required 2 µg/mL (≈ 5.48 µM).

For `Oc1ccc(-c2nc(-c3ccc(Oc4ccccc4CBr)cc3)no2)cc1`, the “-logMIC” value amounted to 3.969 and the MIC is 8 µg/mL (≈ 18.9 µM).

Take `Fc1ccc(-c2nc(-c3ccccc3)no2)cc1`: the “-logMIC” value is reported as 0.63 and the MIC was 128 µg/mL (≈ 533 µM).
